Measured values as given in patent publication US11541029B2, “High penetration compositions and their applications” (Techfields Pharma Co., Ltd., priority 2008, dated 2023).

How the values were obtained:
[1] = system: Human Gastric Cancer HGC-27 cell; experiment: HGC-27 cell proliferation, MTT assay; format: cell-based; details: 72 hours
Description: The inhibition of cellular proliferation was measured by the modified dimethyl thiazolyl diphenyl tetrazolium salt (MTT) [3-(4,5-dimethylthiazol-2-yl)-2,5-diphenyltetrazolium bromide] assay, based on the ability of live cells to converting thiazolyl blue to dark blue formazan. Approximately 3500 cells of HGC-27 (in 100 μl culture solution) were seeded into 96-well culture plates and were cultured for 16 hours at 37° C. Different concentration solution (100 μl) of Taxol (positive control), chlorambucil, or N,N-diethylaminoethyl 4-[bis(2-chloroethyl)amino]benzenebutyrate.HCl salt (HPC of chlorambucil) were added and incubation continued for 72 hours at 37° C. Then MTT were added and incubation continued at 37° C. for 4 h, and 100 μl DMSO was pipetted to solubilize the formazan product for 30 min at room temperature. The absorbency at 570 nm was measured using Bio-Rad micro-plate reader […].

[2] = system: Human breast cancer cells (BCAP-37); experiment: Human breast cancer xenograft in nude mice
Description: Human breast cancer cells (BCAP-37, 2-3 mm^3 of tumor tissue was used in each mouse) were subcutaneously xenografted into nude mice (BALB, 12 groups, 7 mice each group). […] 50 μl of 5% (equal to 2.5 mg of the HPCs) diethylaminoethyl acetylsalicylate.HCl (P-1, in pure water); 1-piperidinepropyl 2[(2,6-dichlorophenyl)amino]benzene acetate.HCl (P-2, in water), 1-pyrrolidinepropyl 2-(3-benzoylphenyl) propionate.HCl (P-3, in water), 4-piperidinemethyl 2-(3-phenoxyphenyl)propionate.HCl (P-4, in water), 3-piperidinemethyl 2-(ρ-isobutylphenyl) propionate.HCl (P-5, in water), diethylaminoethyl 1-(p-chlorobenzoyl)-5-methoxy-2-methylindole 3-acetate.HCl (P-11, in water), 2-(4-morpholinyl)ethyl (Z)-5-fluoro-2-methyl-1-[(4-methylsulfinyl)phenylmethylene]-1H-indene-3-acetate.

[3] = system: Human colon cancer cells (LS174J); experiment: Human colon cancer xenograft in nude mice
Text: Human colon cancer cells (LS174J, 2-3 mm^3 of tumor tissue was used in each mouse) were subcutaneously xenografted into nude mice (BALB).

[4] = Distribution in organs of rats killed with CO2 (absence of general circulation); details: 5 hrs after 0.3 mmol/kg diethylaminoethyl acetylsalicylate HCl salt on back of killed rats;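 note: tissue concentration in nmol/g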
Description: 0.3 mmol/kg of diethylaminoethyl acetylsalicylate HCl salt (10% in pure water) was applied to the back of rats (10 cm^2) which were killed with CO2. The rats were shaken for 5 hrs, then the HPCs and parent drugs in organs of rats were determined.

[5] = system: rats given sterilized E. coli suspension as a pyrogen; experiment: Antipyretic activity of aspirin and its HPC (Study B); format: in vivo
Description: […] Group A was the control group. The body temperature of rats was taken at 90 min. intervals before and after the administration of the test compounds.

[6] = system: type 2 diabetes rat models [SLAC/GK(Goto and Kakisaki)]; experiment: Hypoglycemic effects of aspirin and its HPC in GK rats, once per day for 6 weeks; format: in vivo; details: for Blood Glucose Levels at day 1 / Blood Glucose Levels at day 42: no fasting, n = 5;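 for Blood Glucose Levels at day 42: blood glucose in mg/dL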
Description: The blood glucose levels were measured three times every week (no fasting) from the third week to the sixth week.

[7] = 50 μl of 5% topically every 8 hours
[8] = about 50 μl of 5% topically every 12 hours

CCN(CC)CCOC(=O)CCCc1ccc(N(CCCl)CCCl)cc1.Cl [HPC of chlorambucil, N,N-diethylaminoethyl 4-[bis(2-chloroethyl)amino]benzenebutyrate.HCl salt]
HGC-27 cell growth inhibition rate ([1]; 0.5 μM): 15.6%
HGC-27 cell growth inhibition rate ([1]; 2.0 μM): 28.7%
HGC-27 cell growth inhibition rate ([1]; 5.0 μM): 42.1%
HGC-27 cell growth inhibition rate ([1]; 25 μM): 61.6%
HGC-27 cell growth inhibition rate ([1]; 50 μM): 82.1%
HGC-27 cell growth inhibition rate ([1]; 75 μM): 96.5%
HGC-27 cell growth inhibition rate ([1]; 100 μM): 98.1%
HGC-27 cell growth inhibition rate ([1]; 200 μM): 97.2%
HGC-27 cell growth inhibition rate ([1]; 500 μM): 98.2%

Cl.O=C(Cc1ccccc1Nc1c(Cl)cccc1Cl)OCCCN1CCCCC1 [P-2, 1-piperidinepropyl 2[(2,6-dichlorophenyl)amino]benzene acetate.HCl]
tumor Size at day 42 [2, 7]: 160 ± 50 mm^3
Weight of mice at day 42 ([2]; 50 μl of 5% topically every 8 hours, in g (unit assumed)): 23 ± 2
Weight of mice at day 30 [3, 8]: 22 ± 2
tumor Size at day 30 [3, 8]: 520 ± 170 mm^3

CC(C(=O)OCCCN1CCCC1)c1cccc(C(=O)c2ccccc2)c1.Cl (centres unmarked) [P-3, 1-pyrrolidinepropyl 2-(3-benzoylphenyl) propionate.HCl]
tumor Size at day 42 [2, 7]: 210 ± 60 mm^3
Weight of mice at day 42 ([2]; in vivo): 22 ± 3
tumor Size at day 30 [3, 8]: 550 ± 190 mm^3
Weight of mice at day 30 ([3]; in vivo): 23 ± 2

CC(C(=O)OCC1CCNCC1)c1cccc(Oc2ccccc2)c1.Cl (centres unmarked) [P-4, 4-piperidinemethyl 2-(3-phenoxyphenyl)propionate.HCl]
tumor Size at day 42 [2, 7]: 190 ± 55 mm^3
Weight of mice at day 42 ([2]; in vivo): 23 ± 3
tumor Size at day 30 [3, 8]: 550 ± 128 mm^3
Weight of mice at day 30 ([3]; in vivo): 22 ± 3

Cl.Nc1c(CC(=O)OCCN2CCOCC2)cccc1C(=O)c1ccccc1 [P-16, 2-(4-morpholinyl)ethyl 2-amino-3-benzoylbenzeneacetate.HCl]
tumor Size at day 30 [3, 8]: 590 ± 350 mm^3
Weight of mice at day 30 ([3]; in vivo): 23 ± 2

CCN(CC)CCOC(=O)c1ccccc1Nc1cccc(C)c1C.Cl [P-46, diethylaminoethyl 2-[(2,3-dimethylphenyl)amino]benzoate.HCl]
tumor Size at day 30 [3, 8]: 650 ± 250 mm^3
Weight of mice at day 30 ([3]; in vivo): 23 ± 3

CCN(CC)CCOC(=O)c1ccccc1Nc1c(Cl)ccc(C)c1Cl.Cl [P-47, diethylaminoethyl 2-[(2,6-dichloro-3-methylphenyl)amino]benzoate.HCl]
tumor Size at day 30 [3, 8]: 590 ± 350 mm^3
Weight of mice at day 30 ([3]; in vivo): 22 ± 2

CN(C)CCCC(=O)OC1=C(C(=O)Nc2nccs2)N(C)S(=O)(=O)c2ccccc21.Cl [P-52, N-(2-thiazoyl)-4-N,N-dimethylaminobutyryloxy-2-methyl-2H,1,2-benzothiazine-3-carboxamide 1,1-dioxide.HCl]
tumor Size at day 30 [3, 8]: 720 ± 280 mm^3
Weight of mice at day 30 ([3]; in vivo): 23 ± 3

CC(=O)Oc1ccccc1C(=O)O [aspirin, acetylsalicylic acid, reference compound]
concentration in Leg muscle [4]: 6.7 ± 2.1 nmol/g
concentration in kidney [4]: 3.5 ± 2.1 nmol/g
concentration in liver [4]: 2.1 ± 1.0 nmol/g
concentration in pancreas [4]: 4.1 ± 1.3 nmol/g
concentration in stomach [4]: 4.7 ± 2.5 nmol/g
body temperature ([5]; 20 mg/kg, orally, t = 0 min., in °C (unit assumed)): 37.5 ± 0.2
body temperature ([5]; 20 mg/kg, orally, t = 90 min., in °C (unit assumed)): 37.7 ± 0.3
body temperature ([5]; 20 mg/kg, orally, t = 180 min., in °C (unit assumed)): 37.4 ± 0.3
body temperature ([5]; 20 mg/kg, orally, t = 270 min., in °C (unit assumed)): 37.4 ± 0.4
body temperature ([5]; 50 mg/kg, orally, t = 0 min., in °C (unit assumed)): 37.5 ± 0.3
body temperature ([5]; 50 mg/kg, orally, t = 90 min., in °C (unit assumed)): 37.7 ± 0.3
body temperature ([5]; 50 mg/kg, orally, t = 180 min., in °C (unit assumed)): 37.1 ± 0.3
body temperature ([5]; 50 mg/kg, orally, t = 270 min., in °C (unit assumed)): 37.0 ± 0.4
body temperature ([5]; 100 mg/kg, orally, t = 0 min., in °C (unit assumed)): 37.5 ± 0.2
body temperature ([5]; 100 mg/kg, orally, t = 90 min., in °C (unit assumed)): 37.3 ± 0.4
body temperature ([5]; 100 mg/kg, orally, t = 180 min., in °C (unit assumed)): 36.7 ± 0.3
body temperature ([5]; 100 mg/kg, orally, t = 270 min., in °C (unit assumed)): 36.8 ± 0.4
body temperature ([5]; groups H/I, 50 mg/kg, transdermally, t = 0 min., in °C (unit assumed)): 37.6 ± 0.3
body temperature ([5]; groups H/I, 50 mg/kg, transdermally, t = 90 min., in °C (unit assumed)): 37.9 ± 0.3
body temperature ([5]; groups H/I, 50 mg/kg, transdermally, t = 180 min., in °C (unit assumed)): 37.8 ± 0.4
body temperature ([5]; groups H/I, 50 mg/kg, transdermally, t = 270 min., in °C (unit assumed)): 37.7 ± 0.5
body temperature ([5]; groups J/K, 20 mg/kg, transdermally, t = 0 min., in °C (unit assumed)): 37.6 ± 0.3
body temperature ([5]; groups J/K, 20 mg/kg, transdermally, t = 90 min., in °C (unit assumed)): 37.8 ± 0.4
body temperature ([5]; groups J/K, 20 mg/kg, transdermally, t = 180 min., in °C (unit assumed)): 37.7 ± 0.4
body temperature ([5]; groups J/K, 20 mg/kg, transdermally, t = 270 min., in °C (unit assumed)): 38.0 ± 0.3
body temperature ([5]; groups L/M, 20 mg/kg, transdermally, t = 0 min.): 37.5 ± 0.3
body temperature ([5]; groups L/M, 20 mg/kg, transdermally, t = 90 min., in °C (unit assumed)): 37.6 ± 0.5
body temperature ([5]; groups L/M, 20 mg/kg, transdermally, t = 180 min., in °C (unit assumed)): 37.8 ± 0.3
body temperature ([5]; groups L/M, 20 mg/kg, transdermally, t = 270 min., in °C (unit assumed)): 37.9 ± 0.3
antipyretic activity ([5]; transdermal administration): did not show any antipyretic activity
Blood Glucose Levels at day 1 ([6]; 50 mg/kg, orally): 213.7 ± 20.5 mg/dL
Blood Glucose Levels at day 42 ([6]; 50 mg/kg, orally): 243.4 ± 26.7 mg/dL
Blood Glucose Levels at day 1 ([6]; 50 mg/kg, transdermally): 216.6 ± 17.3 mg/dL
Blood Glucose Levels at day 42 ([6]; 50 mg/kg, transdermally): 258.2 ± 17.4 mg/dL
Blood Glucose Levels at day 1 ([6]; 100 mg/kg, orally): 211.3 ± 21.5 mg/dL
Blood Glucose Levels at day 42 ([6]; 100 mg/kg, orally): 219.4 ± 19.9 mg/dL
Blood Glucose Levels at day 1 ([6]; 100 mg/kg, transdermally): 217.4 ± 18.9 mg/dL
Blood Glucose Levels at day 42 ([6]; 100 mg/kg, transdermally): 255.4 ± 24.6 mg/dL
Blood Glucose Levels at day 1 ([6]; 200 mg/kg, orally): 213.5 ± 21.5 mg/dL
Blood Glucose Levels at day 42 ([6]; 200 mg/kg, orally): 195.4 ± 23.4 mg/dL
Blood Glucose Levels at day 1 ([6]; 200 mg/kg, transdermally): 216.4 ± 21.9 mg/dL
Blood Glucose Levels at day 42 ([6]; 200 mg/kg, transdermally): 247.4 ± 27.8 mg/dL
Blood Glucose Levels at day 1 ([6]; 300 mg/kg, orally): 215.6 ± 22.4 mg/dL
Blood Glucose Levels at day 42 ([6]; 300 mg/kg, orally): 165.4 ± 22.1 mg/dL
anti-diabetic effect ([6]; transdermal administration): did not show any anti-diabetic effect
